The values below come from PMC4163382, “Symbiotic Plant Peptides Eliminate Candida albicans Both In Vitro and in an Epithelial Infection Model and Inhibit the Proliferation of Immortalized Human Cells” (BioMed Research International, 2014).

One series relates to C. albicans WO-1. The class given is cell-based, Candida albicans. To be noted: for Minimal fungicidal concentration, 3 h: WO-1, 3 h; for Minimal fungicidal concentration, 24 h: WO-1, 24 h. The procedure: (§1) The antifungal activity of the NCR peptides against C. albicans strains and other Candida species was determined in vitro using 96-well flat bottom microtiter plates (Sarstedt). Fifty microliters of dilutions from each peptide (final concentrations in the assays ranged from 2.5 to 100 μg/mL) was added to 50 μL of 10^4 cells mL^−1 and 10^5 cells mL^−1 in LSM. The plates were incubated at 30°C and the peptide concentrations that prevented the germination of yeast cells were determined by microscopic analysis and measurement of absorbance at 600 nm with a microtiter plate reader (FLUOstar OPTIMA; BMG Labtech) after 24 and 48 hours. Minimal inhibitory concentration (MIC) was determined as the lowest concentration of the peptide at which there was no visible and measurable growth after 24 hours of incubation. To determine whether the antifungal effect was fungistatic or fungicidal, 10 μL from each treatment was dropped onto solid YPD plate after 3 and 24 hours. Plates were incubated at 30°C for 48 hours and developing colonies were observed. Minimal fungicidal concentration (MFC) was defined where no fungal growth could be observed.

For series [1], the system named is C. albicans strains WO-1 and Sc 5314. Briefly: Microdilution antifungal assay, summary for C. albicans. The class given is cell-based, Candida albicans. The following applies: for Anticandidal activity against the yeast form of growing C. albicans: strains WO-1 and Sc 5314, LSM medium, microdilution plate assay. The procedure: as §1
A general note: Broth dilution looks for growth in wells or tubes with falling amounts of substance.

Series [2] has as its system PK E6/E7 vaginal epithelial cells. Briefly: MTT assay, cytotoxicity on human epithelial cells. The class given is cell-based. The following applies: 10 μg/mL, MTT assay, cytotoxic control. The protocol:
The immortalized human vaginal epithelial cell line PK E6/E7 [15] was cultured in serum-free CKM supplemented with 0.005 μg/mL recombinant epidermal growth factor, 50 μg/mL bovine pituitary extract, L-glutamine, and antibiotic/antimycotic solution (Life Technologies) in a CO2 thermostat at 37°C [16]. Cells at 60–70% confluence were used in subsequent experiments.
MTT Assay. PK E6/E7 vaginal epithelial cells were seeded in the wells of a 96-well plate at a density of 1 × 10^4 cells per well in a final volume of 100 μL. CKM was then aspirated and 100 μL of the appropriate peptide diluted in PBgluc was added. After 3 hours of incubation at 37°C, the peptide solution was removed, and the cells were let to regenerate in CKM for 24 hours. Then 5 mg/mL 3-[4,5-dimethylthiazol-2-yl]-2,5-diphenyltetrazolium bromide (MTT) was added to each well and the plate was placed to 37°C for 4 hours. The amount of formazan formed by the activity of the mitochondrial succinate dehydrogenase of living cells was measured by using a microtiter plate reader (FLUOstar OPTIMA) at the wavelength of 560 nm.
10 μg/mL of primycin, a macrolide lactone antibiotic complex that rapidly kills PK cells, was used as a control for cytotoxicity in both assays.
MTT assays and impedance measurements were performed in at least four technical parallels and two biological replicates; all the data are presented as mean ± standard deviation. Significance was calculated with Newman-Keuls post hoc test using the GraphPad Prism version 5 for Windows and a probability (P) value of less than 0.05 was considered significant.
For orientation: Formazan colour is commonly taken as a measure of viable cells.

Ends that are not written are not given here. Peptide text beside a SMILES is read from it.

Consider `CC[C@H](C)[C@H](NC(=O)[C@H](Cc1ccc(O)cc1)NC(=O)[C@H](CC(N)=O)NC(=O)[C@H](CCCNC(=N)N)NC(=O)[C@@H](NC(=O)[C@H](CCC(N)=O)NC(=O)[C@H](CCCNC(=N)N)NC(=O)[C@H](CS)NC(=O)[C@H](CC(=O)O)NC(=O)[C@H](CCCCN)NC(=O)[C@H](CC(N)=O)NC(=O)[C@@H](NC(=O)[C@@H](NC(=O)[C@H](CS)NC(=O)[C@H](CC(N)=O)NC(=O)[C@H](CCCNC(=N)N)NC(=O)[C@H](CO)NC(=O)[C@@H](NC(=O)[C@@H]1CCCN1C(=O)[C@H](CC(C)C)NC(=O)[C@H](Cc1ccccc1)NC(=O)[C@H](C)N)[C@@H](C)O)[C@@H](C)CC)[C@@H](C)O)C(C)C)C(=O)N[C@@H](C)C(=O)N[C@@H](CCCNC(=N)N)C(=O)N[C@@H](CS)C(=O)N[C@@H](CCCNC(=N)N)C(=O)N[C@@H](CCCCN)C(=O)NCC(=O)N[C@@H](CCC(N)=O)C(=O)N[C@@H](CS)C(=O)N[C@@H](CC(C)C)C(=O)N[C@@H](CCC(N)=O)C(=O)N[C@@H](CO)C(=O)N1CCC[C@H]1C(=O)N[C@H](C(=O)N[C@@H](CCCNC(=N)N)C(=O)O)C(C)C` [NCR030] (H-AFLPTSRNCITNKDCRQVRNYIARCRKGQCLQSPVR-OH; N-terminus and C-terminus assumed), for which, in the series on C. albicans WO-1, the “Minimal fungicidal concentration, 3 h” value was 12.5 (±2) μg/mL and the “Minimal fungicidal concentration, 24 h” value was 16.5 (±5) μg/mL. Besides, the “Anticandidal activity against the yeast form of growing C. albicans” value (shortened to “Anticandidal activity”) in series [1] is recorded as “exhibited anticandidal activity”.

On to `CC[C@H](C)[C@H](NC(=O)[C@H](CCCNC(=N)N)NC(=O)[C@H](CCCNC(=N)N)NC(=O)[C@H](CCCNC(=N)N)NC(=O)[C@@H](NC(=O)[C@H](CS)NC(=O)[C@H](Cc1ccc(O)cc1)NC(=O)CNC(=O)[C@H](CCCCN)NC(=O)[C@H](CCCNC(=N)N)NC(=O)[C@H](CS)NC(=O)[C@H](CCCNC(=N)N)NC(=O)[C@H](C)NC(=O)[C@H](CCCNC(=N)N)NC(=O)[C@H](Cc1ccc(O)cc1)NC(=O)[C@H](CC(N)=O)NC(=O)[C@H](CCCCN)NC(=O)[C@@H](NC(=O)[C@@H](NC(=O)[C@H](CO)NC(=O)[C@H](CS)NC(=O)[C@H](CCC(=O)O)NC(=O)[C@H](CCCCN)NC(=O)[C@H](CC(=O)O)NC(=O)[C@H](CO)NC(=O)[C@@H](NC(=O)[C@H](CS)NC(=O)[C@@H]1CCCN1C(=O)[C@H](CCCCN)NC(=O)[C@H](CO)NC(=O)[C@H](CC(C)C)NC(=O)[C@H](CCC(N)=O)NC(=O)[C@@H](NC(=O)[C@H](Cc1ccccc1)NC(=O)[C@H](C)N)[C@@H](C)CC)[C@@H](C)CC)[C@@H](C)CC)C(C)C)C(C)C)C(=O)N[C@@H](CCCNC(=N)N)C(=O)O` [NCR044] (H-AFIQLSKPCISDKECSIVKNYRARCRKGYCVRRRIR-OH; N-terminus and C-terminus assumed), for which, in the series on C. albicans WO-1, the “Minimal fungicidal concentration, 3 h” value is 11 (±2) μg/mL and the “Minimal fungicidal concentration, 24 h” value is recorded as 6.25 (±1) μg/mL. The “Anticandidal activity” value in series [1] is on record as “exhibited anticandidal activity”.

For the compound `CC[C@H](C)[C@H](NC(=O)[C@H](CC(N)=O)NC(=O)[C@H](Cc1c[nH]cn1)NC(=O)[C@@H]1CCCN1C(=O)[C@@H]1CCCN1C(=O)[C@H](CCSC)NC(=O)[C@H](CCCNC(=N)N)NC(=O)[C@@H]1CCCN1C(=O)[C@H](CS)NC(=O)[C@H](CC(=O)O)NC(=O)[C@H](CCCCN)NC(=O)[C@H](CC(=O)O)NC(=O)[C@@H](NC(=O)[C@H](CC(C)C)NC(=O)[C@H](CS)NC(=O)[C@@H]1CCCN1C(=O)[C@H](CCCNC(=N)N)NC(=O)[C@H](CC(C)C)NC(=O)[C@@H](NC(=O)[C@@H](N)CCSC)[C@@H](C)O)[C@@H](C)O)C(=O)N[C@@H](CCCCN)C(=O)N[C@@H](CS)C(=O)N[C@@H](CCCNC(=N)N)C(=O)N[C@@H](CCCCN)C(=O)NCC(=O)N[C@@H](Cc1c[nH]cn1)C(=O)N[C@@H](CS)C(=O)N[C@H](C(=O)N1CCC[C@H]1C(=O)N[C@H](C(=O)NCC(=O)N[C@@H](CCCCN)C(=O)N1CCC[C@H]1C(=O)N[C@@H](Cc1ccccc1)C(=O)N[C@@H](CCCCN)C(=O)O)[C@@H](C)CC)C(C)C` [NCR137] (H-MTLRPCLTDKDCPRMPPHNIKCRKGHCVPIGKPFK-OH; N-terminus and C-terminus assumed), in the series with C. albicans WO-1, the “Minimal fungicidal concentration, 3 h” value is reported as 20 (±2.5) μg/mL and the “Minimal fungicidal concentration, 24 h” value is given as 25 (±3) μg/mL. Moreover, in series [1], the “Anticandidal activity” value is listed as “exhibited anticandidal activity”.

For `CC[C@H](C)[C@H](N)C(=O)N[C@@H](Cc1ccc(O)cc1)C(=O)N[C@@H](Cc1ccccc1)C(=O)N1CCC[C@H]1C(=O)N[C@H](C(=O)N[C@@H](CO)C(=O)N[C@@H](CCCNC(=N)N)C(=O)N1CCC[C@H]1C(=O)N[C@@H](CS)C(=O)N[C@H](C(=O)N[C@H](C(=O)N[C@@H](CC(=O)O)C(=O)N[C@@H](CCCCN)C(=O)N[C@@H](CC(=O)O)C(=O)N[C@@H](CS)C(=O)N1CCC[C@H]1C(=O)N[C@@H](CC(N)=O)C(=O)N[C@@H](CCSC)C(=O)N[C@@H](CCCCN)C(=O)N[C@@H](Cc1c[nH]cn1)C(=O)N[C@@H](Cc1ccc(O)cc1)C(=O)N[C@@H](CCCCN)C(=O)N[C@@H](C)C(=O)N[C@@H](CCCCN)C(=O)N[C@@H](CS)C(=O)N[C@@H](CCCNC(=N)N)C(=O)N[C@@H](CCCCN)C(=O)NCC(=O)N[C@@H](Cc1ccccc1)C(=O)N[C@@H](CS)C(=O)N[C@H](C(=O)N[C@@H](CO)C(=O)N[C@@H](CO)C(=O)N[C@@H](CCCNC(=N)N)C(=O)N[C@H](C(=O)N[C@@H](CCCNC(=N)N)C(=O)O)C(C)C)[C@@H](C)CC)[C@@H](C)O)[C@@H](C)CC)C(C)C` [NCR147] (H-IYFPVSRPCITDKDCPNMKHYKAKCRKGFCISSRVR-OH; N-terminus and C-terminus assumed), in the series on C. albicans WO-1, the “Minimal fungicidal concentration, 3 h” value is reported as 8 (±6.5) μg/mL and the “Minimal fungicidal concentration, 24 h” value was 9 (±4) μg/mL. Also, the “Anticandidal activity” value in series [1] is “exhibited anticandidal activity”.

Turning to `CSCC[C@H](NC(=O)[C@H](Cc1ccccc1)NC(=O)[C@H](CCCCN)NC(=O)[C@@H]1CCCN1C(=O)[C@H](CS)NC(=O)[C@H](CCCNC(=N)N)NC(=O)CNC(=O)[C@H](CC(=O)O)NC(=O)[C@H](CCCNC(=N)N)NC(=O)CNC(=O)[C@H](CS)NC(=O)[C@H](CC(C)C)NC(=O)[C@@H](NC(=O)[C@H](CCCNC(=N)N)NC(=O)[C@@H](N)CCSC)C(C)C)C(=O)N[C@@H](CS)C(=O)N[C@@H](CCCNC(=N)N)C(=O)N[C@H](C(=O)N[C@@H](Cc1ccccc1)C(=O)N[C@@H](CC(C)C)C(=O)O)[C@@H](C)O` [NCR280] (H-MRVLCGRDGRCPKFMCRTFL-OH), in the series on C. albicans WO-1, the “Minimal fungicidal concentration, 3 h” value is given as 10 (±2) μg/mL and the “Minimal fungicidal concentration, 24 h” value was 8 (±3) μg/mL.

In general, MIC refers to the lowest concentration that inhibits growth of the organism. Turning to `C[C@@H]1[C@H](O)[C@@H](C)/C=C/C=C/C=C/C=C/C=C/C=C/C=C/[C@H](O[C@@H]2O[C@H](C)[C@@H](O)[C@H](N)[C@@H]2O)C[C@@H]2O[C@](O)(C[C@@H](O)C[C@@H](O)[C@H](O)CC[C@@H](O)C[C@@H](O)CC(=O)O[C@H]1C)C[C@H](O)[C@H]2C(=O)O` [amphotericin B, reference compound], in series [1] (Candida albicans, SC5314, comparator value given in text, strain, method and source not given, read-out: MIC of amphotericin B), the MIC is 1.69 µM. Further, the “MIC of amphotericin B” value in series [1] (comparator value given in text, strain, method and source not given) was ~ 1.7 μM.

On to “ITISNSSFGRIVYWNCKTDKDCKQHRGFNFRCRSGNCIPIRR (cysteines drawn unpaired) [NCR183]”, for which, in the series on C. albicans WO-1, the “Minimal fungicidal concentration, 3 h” value is 16.5 (±12) μg/mL and the “Minimal fungicidal concentration, 24 h” value is given as 15.5 (±13) μg/mL. In addition, in series [1], the “Anticandidal activity” value was “exhibited anticandidal activity”.

primycin [reference compound]: the “Efficiency of killing epithelial cells” value in series [2] is given as “about 90%”.
